What was measured:
129S6/SvEv mice [1] = assay: Open field (OF); assay type: in vivo
Procedure: The OF assay was administered as previously described (47). Briefly, motor activity was quantified in 4 Plexiglas open field boxes 43×43 cm^2 (MED Associates, Georgia, Vt.). Two sets of 16 pulse-modulated infrared photobeams on opposite walls 2.5-cm apart recorded x-y ambulatory movements. Activity chambers were computer interfaced for data sampling at 100-ms resolution. The computer defined grid lines that dividing center and surround regions, with the center square consisting of four lines 11 cm from the wall.

129S6/SvEv mice [2] = assay: Forced swim test (FST); immobility time; assay type: in vivo; settings: for p, Fisher's PLSD Saline vs. drug, FST Day 2 Immobility Time (sec): drug 1 week before stress; for p, Fisher's PLSD Saline vs. drug, FST Day 2 Immobility Time Min 1 (s) / p, Fisher's PLSD Saline vs. drug, FST Day 2 Immobility Time Min 2 (s) / p, Fisher's PLSD Saline vs. drug, FST Day 2 Immobility Time Min 3 (s) / p, Fisher's PLSD Saline vs. drug, FST Day 2 Immobility Time Min 4 (s) / p, Fisher's PLSD Saline vs. drug, FST Day 2 Immobility Time Min 5 (s) / p, Fisher's PLSD Saline vs. drug, FST Day 2 Immobility Time Min 6 (s) / p, Fisher's PLSD Saline vs. drug, FST Day 2 Immobility Time (s): drug 5 minutes after stress; for p, Fisher's PLSD Saline vs. drug, FST Day 2 Immobility Time Min 1 (s) / p, Fisher's PLSD Saline vs. drug, FST Day 2 Immobility Time Min 2 (s) / p, Fisher's PLSD Saline vs. drug, FST Day 2 Immobility Time Min 3 (s) / p, Fisher's PLSD Saline vs. drug, FST Day 2 Immobility Time Min 4 (s) / p, Fisher's PLSD Saline vs. drug, FST Day 2 Immobility Time Min 5 (s) / p, Fisher's PLSD Saline vs. drug, FST Day 2 Immobility Time Min 6 (s): FIG. 2F; for p, Fisher's PLSD Saline vs. drug, FST Day 2 Immobility Time (s): FIG. 2G
Procedure: The FST was administered as previously described (47). Briefly, mice were placed into clear plastic buckets 20 cm in diameter and 23 cm deep filled ⅔ of the way with 22° C. water. Mice were videotaped from the side for 6 min and were exposed to the swim test on 2 consecutive days Immobility time was scored by an experimenter blind to the experimental groups.

[3] = 1 week prior to CFC, (R,S)-ketamine 30 mg/kg, FENM 10, 20 or 30 mg/kg, vs saline
[4] = 5 min prior to CFC, (R,S)-ketamine 30 mg/kg, FENM 20 mg/kg, vs saline
[5] = Fisher's PLSD, drug 5 minutes after stress, (R,S)-ketamine 30 mg/kg vs. FENM 20 mg/kg
[6] = Fisher's PLSD, drug 5 minutes after stress, FENM 20 mg/kg, (R,S)-ketamine 30 mg/kg
[7] = Saline vs. FENM (20 mg/kg), cohort 5 min before re-exposure 1, FIG. 9L
[8] = non-stressed mice, FENM 20 mg/kg 1 hour before the start of the OF, vs saline
[9] = (R,S)-ketamine (30 mg/kg) vs. FENM (20 mg/kg), FIG. 8H

## NC12CC3CC(C1)CC(CCF)(C3)C2 [FENM, 1-amino-3-fluoroethyl-adamantane]
129S6/SvEv mice [1]; [3]
  distance travelled in the OF: did not alter
  time spent in the center of the OF arena: did not alter
129S6/SvEv mice [1]; 5 min after context re-exposure 1, FENM 20 mg/kg, vs saline
  time spent in the center of the OF: significantly increased
129S6/SvEv mice [1]; [4]
  distance travelled in the OF: did not alter
  time spent in the center of the OF arena: did not alter
129S6/SvEv mice [1]; (R,S)-ketamine (30 mg/kg) vs. FENM (20 mg/kg), cohort 5 min before re-exposure 1, FIG. 9L
  Open Field, Distance Travelled Min 1 (cm), p (Fisher's LSD): 0.0129
129S6/SvEv mice [1]; Fisher's PLSD after RMANOVA, drug 5 minutes after stress, (R,S)-ketamine 30 mg/kg vs. FENM 20 mg/kg, FIG. 3L
  p, Distance Travelled (cm), OF, (R,S)-ketamine vs. FENM: 0.8632
129S6/SvEv mice [1]; Fisher's PLSD after RMANOVA, drug 5 minutes after stress, FENM 20 mg/kg, (R,S)-ketamine 30 mg/kg, FIG. 3L
  p, Distance Travelled (cm), OF, Saline vs. drug: 0.7967
129S6/SvEv mice [1]; [5]
  p, Distance Travelled Min 1 (cm), OF, (R,S)-ketamine vs. FENM: 0.5911
  p, Distance Travelled Min 2 (cm), OF, (R,S)-ketamine vs. FENM: 0.8997
  p, Distance Travelled Min 3 (cm), OF, (R,S)-ketamine vs. FENM: 0.5565
  p, Distance Travelled Min 4 (cm), OF, (R,S)-ketamine vs. FENM: 0.7043
  p, Distance Travelled Min 5 (cm), OF, (R,S)-ketamine vs. FENM: 0.5847
  p, Distance Travelled Min 6 (cm), OF, (R,S)-ketamine vs. FENM: 0.7385
  p, Distance Travelled Min 7 (cm), OF, (R,S)-ketamine vs. FENM: 0.4416
  p, Distance Travelled Min 8 (cm), OF, (R,S)-ketamine vs. FENM: 0.7658
  p, Distance Travelled Min 9 (cm), OF, (R,S)-ketamine vs. FENM: 0.8899
  p, Distance Travelled Min 10 (cm), OF, (R,S)-ketamine vs. FENM: 0.9456
129S6/SvEv mice [1]; [6]
  p, Distance Travelled Min 1 (cm), OF, Saline vs. drug: 0.0158
  p, Distance Travelled Min 2 (cm), OF, Saline vs. drug: 0.0068
  p, Distance Travelled Min 3 (cm), OF, Saline vs. drug: 0.4093
  p, Distance Travelled Min 4 (cm), OF, Saline vs. drug: 0.4054
  p, Distance Travelled Min 5 (cm), OF, Saline vs. drug: 0.1372
  p, Distance Travelled Min 6 (cm), OF, Saline vs. drug: 0.5067
  p, Distance Travelled Min 7 (cm), OF, Saline vs. drug: 0.4644
  p, Distance Travelled Min 8 (cm), OF, Saline vs. drug: 0.0809
  p, Distance Travelled Min 9 (cm), OF, Saline vs. drug: 0.0040
  p, Distance Travelled Min 10 (cm), OF, Saline vs. drug: 0.5094
129S6/SvEv mice [1]; [7]
  Open Field, Distance Travelled Min 1 (cm), p (Fisher's LSD): 0.1253
  Open Field, Distance Travelled Min 2 (cm), p (Fisher's LSD): 0.0385
129S6/SvEv mice [1]; [8]
  distance travelled in the OF: comparable
  time in the center of the OF: comparable
  time in the periphery of the OF: comparable
129S6/SvEv mice [1]; t-test, Baseline, anxiety cohort, FENM 20 mg/kg, FIG. 7C
  p, Distance Travelled (cm), OF, Saline vs. FENM: 0.1878
129S6/SvEv mice [1]; t-test, Baseline, anxiety cohort, FENM 20 mg/kg, FIG. 7D
  p, Time in Center (sec), OF, Saline vs. FENM: 0.1241
129S6/SvEv mice [1]; t-test, Baseline, anxiety cohort, FENM 20 mg/kg, FIG. 7E
  p, Time in Periphery (sec), OF, Saline vs. FENM: 0.1225
129S6/SvEv mice [2]; 10 mg/kg, after ANOVA, FIG. 1G
  p, Fisher's PLSD Saline vs. drug, FST Day 2 Immobility Time (sec): 0.0307
129S6/SvEv mice [2]; 10 mg/kg, after RMANOVA, FIG. 1F
  p, Fisher's PLSD Saline vs. drug, FST Day 2 Immobility Time (sec): 0.0085
129S6/SvEv mice [2]; 10 mg/kg
  p, Fisher's PLSD Saline vs. drug, FST Day 2 Immobility Time Min 1 (s): 0.3105
  p, Fisher's PLSD Saline vs. drug, FST Day 2 Immobility Time Min 2 (s): 0.2275
  p, Fisher's PLSD Saline vs. drug, FST Day 2 Immobility Time Min 3 (s): 0.0949
  p, Fisher's PLSD Saline vs. drug, FST Day 2 Immobility Time Min 4 (s): 0.1329
  p, Fisher's PLSD Saline vs. drug, FST Day 2 Immobility Time Min 5 (s): 0.4763
  p, Fisher's PLSD Saline vs. drug, FST Day 2 Immobility Time Min 6 (s): 0.4453
129S6/SvEv mice [2]; 10 mg/kg, after ANOVA
  p, Fisher's PLSD Saline vs. drug, FST Day 2 Immobility Time (s): 0.0204
129S6/SvEv mice [2]; 20 mg/kg, after ANOVA, FIG. 1G
  p, Fisher's PLSD Saline vs. drug, FST Day 2 Immobility Time (sec): <0.0001
129S6/SvEv mice [2]; 20 mg/kg, after RMANOVA, FIG. 1F
  p, Fisher's PLSD Saline vs. drug, FST Day 2 Immobility Time (sec): <0.0001
129S6/SvEv mice [2]; 30 mg/kg, after ANOVA, FIG. 1G
  p, Fisher's PLSD Saline vs. drug, FST Day 2 Immobility Time (sec): 0.0005
129S6/SvEv mice [2]; 30 mg/kg, after RMANOVA, FIG. 1F
  p, Fisher's PLSD Saline vs. drug, FST Day 2 Immobility Time (sec): 0.0003
129S6/SvEv mice [2]; 30 mg/kg
  p, Fisher's PLSD Saline vs. drug, FST Day 2 Immobility Time Min 1 (s): 0.9988
  p, Fisher's PLSD Saline vs. drug, FST Day 2 Immobility Time Min 2 (s): <0.0001
  p, Fisher's PLSD Saline vs. drug, FST Day 2 Immobility Time Min 3 (s): 0.2804
  p, Fisher's PLSD Saline vs. drug, FST Day 2 Immobility Time Min 4 (s): 0.4890
  p, Fisher's PLSD Saline vs. drug, FST Day 2 Immobility Time Min 5 (s): 0.8673
  p, Fisher's PLSD Saline vs. drug, FST Day 2 Immobility Time Min 6 (s): 0.6591
129S6/SvEv mice [2]; 30 mg/kg, after ANOVA
  p, Fisher's PLSD Saline vs. drug, FST Day 2 Immobility Time (s): 0.0210
129S6/SvEv mice [2]; 5 minutes after CFC, re-exposure 1 day after training, (R,S)-ketamine 30 mg/kg, FENM 20 mg/kg, vs saline
  immobility time, day 2 of the FST: significantly reduced immobility time
129S6/SvEv mice [2]; [9]
  Forced Swim Test Day 1, Immobility Time Min 1 (sec), p (Fisher's LSD): 0.2548
  Forced Swim Test Day 1, Immobility Time Min 2 (sec), p (Fisher's LSD): 0.5009
  Forced Swim Test Day 1, Immobility Time Min 3 (sec), p (Fisher's LSD): 0.4155
  Forced Swim Test Day 1, Immobility Time Min 4 (sec), p (Fisher's LSD): 0.7067
  Forced Swim Test Day 1, Immobility Time Min 5 (sec), p (Fisher's LSD): 0.3041
  Forced Swim Test Day 1, Immobility Time Min 6 (sec), p (Fisher's LSD): 0.8903
129S6/SvEv mice [2]; (R,S)-ketamine (30 mg/kg) vs. FENM (20 mg/kg), after ANOVA, FIG. 8K
  Forced Swim Test Day 2, Immobility Time (sec), p (Fisher's LSD): 0.0713
129S6/SvEv mice [2]; (R,S)-ketamine (30 mg/kg) vs. FENM (20 mg/kg), after RMANOVA, FIG. 8J
  Forced Swim Test Day 2, Immobility Time (sec), p (Fisher's LSD): 0.0712
129S6/SvEv mice [2]; Antidepressant (5 min after stress), dose 10 mg/kg
  Behavior: Depressive-like: ↓
